Experimental data reported in US9988644B2, “Compounds for improved viral transduction” (bluebird bio, Inc., priority 2011, dated 2018).

Experiments:
CD34+ cells [1] = experiment: Vector Copy Number analysis (qRT-PCR, viral LTR vs human beta-actin) after GFP+ lentivirus transduction; assay type: cell-based
Method: Pre-stimulated cells (Example 1) were counted after 18-24 hours of culture. The cells were collected and spun for 5 minutes at 1500 RPM. 1.2×10^6 pre-stimulated CD34^+ cells were resuspended in 60 uL 10× cytokines (1000 ng/mL SCF, 1000 ng/mL TPO, 1000 ng/mL FltL, and 300 ng/mL IL-3), 7.8 uL protamine sulfate, 111 uL viral supernatant, and 361.2 uL SCGM. 90 uL cell/virus suspension (about 200,000 cells) was added to each well of a standard non-adherent 96-well plate. dmPGE2 was added during this viral transduction step at a final concentration of 100 uM, 50 uM, 25 uM, 12.5 uM, 1 uM, or 0 uM.
Washed cells were resuspended in 200 uL SCGM+1× cytokines (as described in Example 1) and transferred to a standard 12-well non-adherent tissue culture plate containing an additional 800 uL SCGM+1× cytokines Cells were maintained for an additional 6 days in a standard humidified tissue culture incubator (5% CO2) and then subjected Vector Copy Number analysis (Example 5) and FACS analysis. For FACS analysis, cells were assayed for the presence of a virally-encoded transgene, green fluorescent protein (GFP). The frequency of the virally-labeled cells within the pool of cultured cells was quantified as the frequency of GFP+ cells within the population. The mean fluorescence intensity of labeled cells was quantified.
Briefly, total genomic DNA was isolated from cells through standard protocols (for example, through DNEasy columns from Qiagen). Genomic DNA was subjected to quantitative real-time polymerase chain reaction (qRT-PCR) with TaqMan probes for viral LTR and human beta-actin. The Ct values for viral signal and beta-actin signal were normalized to a standardized control, and the number of viral copies per copy of beta actin were calculated. A linear relationship between the vector copy number and the mean fluorescence intensity (Example 4) was observed when a viral construct that encodes GFP was used.
Tables 3A-C indicate the dose-response of dmPGE2 in promoting viral transduction of CD34+ cells for three separate experiments. CD34+ cells were thawed and pre-stimulated with SCF, TPO, FltL, and IL3, then transduced (A) with GFP+ lentivirus at a multiplicity of infection of 25, (B) with GFP+ lentivirus at a multiplicity of infection of 5, or (C) transduced with an ALD (ABCD1)-expressing lentivirus at a multiplicity of infection of 25. Cells were exposed to dmPGE2 during the viral transduction step (24-48 hours of culture). Cells were then washed and analyzed by flow cytometry and PCR after approximately 1 week in culture. The percentage of cells positive for GFP (A, B) or ALD (C) via FACS staining is indicated, along with the mean fluorescent intensity (MFI) and vector copy number (VCN) (A, B).

CD34+ cells [2] = experiment: Time-course and dose-response of dmPGE2 in promoting viral transduction (GFP+ lentivirus, flow cytometry); assay type: cell-based, human; details: GFP+ lentivirus MOI 25; for percentage of cells positive for GFP, Pre-Stim w/PGE2 Minus 2 Hr: 22-24 hours of culture; for percentage of cells positive for GFP, Pre-Stim w/PGE2 Minus 1 Hr: 23-24 hours of culture; for percentage of cells positive for GFP, Virus and PGE2 Plus 1 Hr: 24-25 hours of culture; for percentage of cells positive for GFP, Virus and PGE2 Plus 2 Hr: 24-26 hours of culture; for percentage of cells positive for GFP, Virus and PGE2 Plus 4 Hr: 24-28 hours of culture; for percentage of cells positive for GFP, Virus and PGE2 24 Hr: 24-48 hours of culture
Method: MCD-34+ cells were thawed and pre-stimulated with SCF, TPO, FltL and IL3, then transduced with GFP+ lentivirus at a multiplicity of infection of 25. Cells were exposed to dmPGE2 during the viral transduction step (24-25 hours of culture; 24-26 hours of culture; 24-28 hours of culture; or 24-48 hours of culture) and then washed and analyzed by flow cytometry after approximately 1 week in culture. Alternatively, cells were exposed to dmPGE2 during the pre-stimulation step (22-24 hours of culture; 23-24 hours of culture).

[3] = dmPGE2 1 uM during pre-stimulation
[4] = dmPGE2 12.5 uM during pre-stimulation
[5] = dmPGE2 25 uM during pre-stimulation
[6] = dmPGE2 50 uM during pre-stimulation
[7] = dmPGE2 100 uM during pre-stimulation

## CCCCC(C)(C)[C@H](O)/C=C/[C@H]1[C@H](O)CC(=O)[C@@H]1C/C=C\CCCC(=O)O [dmPGE2, 16,16-dimethyl PGE2]
CD34+ cells [1]; dmPGE2 12.5 uM during transduction, GFP MOI 5
  VCN (vector copy number): 0.18
CD34+ cells [1]; dmPGE2 12.5 uM during transduction, GFP MOI 25
  VCN (vector copy number): 1.5
CD34+ cells [1]; dmPGE2 25 uM during transduction, GFP MOI 5
  VCN (vector copy number): 0.21
CD34+ cells [1]; dmPGE2 25 uM during transduction, GFP MOI 25
  VCN (vector copy number): 1.7
CD34+ cells [1]; dmPGE2 50 uM during transduction, GFP MOI 5
  VCN (vector copy number): 0.715
CD34+ cells [1]; dmPGE2 50 uM during transduction, GFP MOI 25
  VCN (vector copy number): 2.2
CD34+ cells [1]; dmPGE2 100 uM during transduction, GFP MOI 5
  VCN (vector copy number): 0.83
CD34+ cells [1]; dmPGE2 100 uM during transduction, GFP MOI 25
  VCN (vector copy number): 3.55
CD34+ cells [2]; [3]
  percentage of cells positive for GFP, Pre-Stim w/PGE2 Minus 2 Hr: 25.74%
  percentage of cells positive for GFP, Pre-Stim w/PGE2 Minus 1 Hr: 22.29%
CD34+ cells [2]; dmPGE2 1 uM
  percentage of cells positive for GFP, Virus and PGE2 Plus 1 Hr: 2.94%
  percentage of cells positive for GFP, Virus and PGE2 Plus 2 Hr: 7.17%
  percentage of cells positive for GFP, Virus and PGE2 Plus 4 Hr: 21.10%
  percentage of cells positive for GFP, Virus and PGE2 24 Hr: 32.03%
CD34+ cells [2]; [4]
  percentage of cells positive for GFP, Pre-Stim w/PGE2 Minus 2 Hr: 30.64%
  percentage of cells positive for GFP, Pre-Stim w/PGE2 Minus 1 Hr: 22.13%
CD34+ cells [2]; dmPGE2 12.5 uM
  percentage of cells positive for GFP, Virus and PGE2 Plus 1 Hr: 1.97%
  percentage of cells positive for GFP, Virus and PGE2 Plus 2 Hr: 5.32%
  percentage of cells positive for GFP, Virus and PGE2 Plus 4 Hr: 28.08%
  percentage of cells positive for GFP, Virus and PGE2 24 Hr: 47.42%
CD34+ cells [2]; [5]
  percentage of cells positive for GFP, Pre-Stim w/PGE2 Minus 2 Hr: 31.90%
  percentage of cells positive for GFP, Pre-Stim w/PGE2 Minus 1 Hr: 24.05%
CD34+ cells [2]; dmPGE2 25 uM
  percentage of cells positive for GFP, Virus and PGE2 Plus 1 Hr: 1.76%
  percentage of cells positive for GFP, Virus and PGE2 Plus 2 Hr: 4.76%
  percentage of cells positive for GFP, Virus and PGE2 Plus 4 Hr: 27.46%
  percentage of cells positive for GFP, Virus and PGE2 24 Hr: 50.69%
CD34+ cells [2]; [6]
  percentage of cells positive for GFP, Pre-Stim w/PGE2 Minus 2 Hr: 31.85%
  percentage of cells positive for GFP, Pre-Stim w/PGE2 Minus 1 Hr: 22.98%
CD34+ cells [2]; dmPGE2 50 uM
  percentage of cells positive for GFP, Virus and PGE2 Plus 1 Hr: 1.85%
  percentage of cells positive for GFP, Virus and PGE2 Plus 2 Hr: 4.23%
  percentage of cells positive for GFP, Virus and PGE2 Plus 4 Hr: 27.45%
  percentage of cells positive for GFP, Virus and PGE2 24 Hr: 54.63%
CD34+ cells [2]; [7]
  percentage of cells positive for GFP, Pre-Stim w/PGE2 Minus 2 Hr: 34.85%
  percentage of cells positive for GFP, Pre-Stim w/PGE2 Minus 1 Hr: 25.14%
CD34+ cells [2]; dmPGE2 100 uM
  percentage of cells positive for GFP, Virus and PGE2 Plus 1 Hr: 2.48%
  percentage of cells positive for GFP, Virus and PGE2 Plus 2 Hr: 4.02%
  percentage of cells positive for GFP, Virus and PGE2 Plus 4 Hr: 21.57%
  percentage of cells positive for GFP, Virus and PGE2 24 Hr: 76.44%
